In paper PMC11530827, “Characterization of a cytochrome P450 that catalyzes the O-demethylation of lignin-derived benzoates” (The Journal of Biological Chemistry, 2024):
Like-named read-outs stand apart in the source and are kept apart here.

B1: PbdA (Rhodococcus jostii RHA1) (protein)
chain: MFAPAPALPVSDADPFALDVLQDPLPFQANLRDAGPVVYLRRYDVFALGRYEQVHAALTDWQSFQSAAGVGLSNFRYETPWRPPSILLEADPPHHDAPRAVLSKILGPRALQKLRAAWIQDAEALVDQLLANTTEFDAVTDLAAAFPLRVFPDAVGIPDAGRENLLPYGDHAFNAFGPANGLVEKGAPRVAELSGWVNAQCARDALTGDGFGAQIWAAADRGDITYEQAPLVVRSLLTAGVDTTVNGLAAVLYAFATHPDQWARLRENRTLARTAFDEAVRWESPVQTFFRTATRDTEIGGATIPDGKKILMFLGAANRDPRRWENPEVFDLGRNPSGHVGYGMGIHQCVGQHVARLESEALLTALASRVHSLEIAGPVHRHLNNTLRSWESVPVKVRLP

Assays:
[1] = target: T1, PbdA (Rhodococcus jostii, UniProt Q0SCI3); details: for NADH depletion rate / Rate of Aromatic turnover / Coupling: WT PbdAB; for NADH depletion rate: air-saturated MOPS (I = 0.1 M); for Rate of Aromatic turnover: appearance of O-demethylated product (disappearance of p-EB); for Coupling: ratio of aromatic turnover rate to NADH oxidation rate
T1 sequence (Q0SCI3 1-400): B1 chain
Experimental: We then measured coupling under optimum conditions for other substrates. […] Finally, we measured the apparent steady-state kinetic parameters of the PbdA reaction under conditions of maximal coupling (Fig. S4).
(§1) For activity measurements 0.25 to 1 μM of PbdA and PbdB were combined in a 200 μl cuvette in 20 mM Mops, pH 7.2 with substrate diluted in the same buffer. NADH was added to 350 μM to initiate the reaction. For HPLC analysis, enzymatic reactions were acidified by adding acetic acid to 10% final concentration, centrifuged (16,000×g for 10 min), and filtered through a 0.2 μm polytetrafluoroethylene membrane. Samples were run over a Luna 5 μm C18(2) 100 Å 150 × 3 mm column (Phenomenex) at 0.7 ml min^−1 by a Waters 2695 separation HPLC module. Samples were eluted with a 16.8 ml linear gradient from 1% methanol plus 0.1% formic acid in water to 100% methanol plus 0.1% formic acid and monitored at 280 nm with a Waters 2996 photodiode array detector. Concentrations were determined by interpolation on a standard curve of 0 to 1 mM of authentic standard. NADH concentration was measured by absorbance at 340 nm, ε = 6.22 mM^-1 cm^-1. Coupling was calculated from the ratio of rate of aromatic turnover, as determined by HPLC, and the rate of NADH oxidation, determined spectroscopically. Buffer ionic strength was adjusted by addition of NaCl, as appropriate. Apparent steady-state kinetic parameters were calculated by fitting Michaelis–Menten equations to initial velocity of reactions at various concentrations of aromatic substrate (LEONORA).

[2] = test system: RHA1; assay: Growth of RHA1 on p-EB; assay type: cell-based, Rhodococcus jostii RHA1; details: M9G with up to 5 mM p-EB; OD600 after 48 hours
Experimental: RHA1 was grown in M9 media supplemented with a mixture trace metals […]) ([37]) and growth substrate. Growth substrates were solubilized in dimethyl sulfoxide and added to the media. For the growth on p-EB experiment, RHA1 was grown in 1 ml […] supplemented with 5 mM benzoate for 1 day shaking at 30 °C. The cells were spun harvested and washed twice with […] and added to 3 ml […] containing p-EB or benzoate at a final OD600 of 0.05. OD600 of 150 μl culture in a 96-well plate was measured by a TECAN Spark microplate reader. […] When OD600 reached 0.6, cells were harvested, washed twice in […] and suspended in 50 ml of […] 1 mM p-EB. After 4 h of incubation, cell supernatant was collected for LC-MS analysis. Figure S6: Growth of RHA1 on p-EB. Growth of WT in […] supplemented with up to 5 mM of p-EB or 5 mM benzoate. OD600 was measured after 48 hours incubation.

[3] = target: T1, PbdA; assay: Substrate binding to PbdA (WT) by type I spectral shift titration; set-up: hexaHis (N, cleaved yes); made in house; host or cells: PbdA: E. coli BL-21 λ (DE3); PbdB: Rhodococcus jostii RHA1; details: for %High-spin (percent of heme iron in high-spin state): on substrate binding
Experimental: The affinity of PbdA for various LDACs was measured by the type I spectral shift upon titration of aromatic compound (Fig. 2). This shift occurs as the compound displaces a water coordinated to the heme iron, initiating a spin state transition in the latter from a low spin, hexacoordinate, to a high spin, pentacoordinate form.
Figure 2 Substrate binding of PbdA. A, difference spectra of PbdA titrated with 1 to 50 μM p-MBA from the substrate-free enzyme. Darker colors indicate higher concentration of p-MBA. Spectra were collected after each addition of substrate to 1 μM enzyme in 20 mM Mops, I = 0.1 M, pH 7.2. B, binding isotherm of PbdA and p-MBA. The fitted curve represents a simple hyperbola. p-MBA, para-methoxybenzoate.
(§2) UV-visible spectroscopy was conducted with a Cary 60 spectrophotometer equipped with a thermostatted cuvette holder at 25 °C. Scans of purified proteins diluted in 20 mM Mops, I = 0.1 M, pH 7.2 were taken between 250 and 700 nm. Heme concentration was calculated as described previously ([35]). Carbon monoxide binding was determined by reduction of PbdA diluted in 20 mM Mops, I = 0.1 M, pH 7.2 as above by a few grains of […]. CO was bubbled into the reduced enzyme for approximately 60 s at a rate of one bubble per second. Dissociation constants (Kd) were determined by titration of ligands diluted into enzyme buffer from 1 M stocks prepared in dimethyl sulfoxide into PbdA diluted in 20 mM Mops, I = 0.1 M, pH 7.2. Spectra take upon addition of substrate were subtracted from the spectrum of the enzyme, and peak-to-trough distance was plotted by ligand concentration. Kd values were determined by fitting a hyperbolic equation to the data as described previously ([23], [36]). The proportion of high-spin heme iron was determined using the approximate peak-to-trough extinction coefficient (ε ≈ 100 mM^−1 cm^−1) ([36]).

[4] = test system: CYP199A2; set-up: method as in PMID 20024082; details: cited from earlier work
[5] = target: T2, PbdA R84M (Rhodococcus jostii, UniProt Q0SCI3, R82M); assay: Substrate binding to PbdA R84M variant by spectral titration; set-up: species or system Rhodococcus jostii RHA1
T2 construct: hexaHis (N, cleaved yes); made in house; host or cells: PbdA variant: E. coli BL-21 λ (DE3); PbdB: Rhodococcus jostii RHA1
Experimental: as §2

[6] = target: T3, PbdA S87A (Rhodococcus jostii, UniProt Q0SCI3, S85A); assay: Substrate binding to PbdA S87A variant by spectral titration; set-up: species or system Rhodococcus jostii RHA1
T3 construct: hexaHis (N, cleaved yes); made in house; host or cells: PbdA variant: E. coli BL-21 λ (DE3); PbdB: Rhodococcus jostii RHA1
Experimental: as §2

[7] = target: T4, PbdA S237A (Rhodococcus jostii, UniProt Q0SCI3, S235A); assay: Substrate binding to PbdA S237A variant by spectral titration; set-up: species or system Rhodococcus jostii RHA1
T4 construct: hexaHis (N, cleaved yes); made in house; host or cells: PbdA variant: E. coli BL-21 λ (DE3); PbdB: Rhodococcus jostii RHA1
Experimental: as §2

[8] = target: T5, PbdA S87A/S237A (Rhodococcus jostii, UniProt Q0SCI3, S235A/S85A); assay: Substrate binding to PbdA S87A/S237A variant by spectral titration; set-up: species or system Rhodococcus jostii RHA1
T5 construct: hexaHis (N, cleaved yes); made in house; host or cells: PbdA variant: E. coli BL-21 λ (DE3); PbdB: Rhodococcus jostii RHA1
Experimental: as §2

[9] = target: T2, PbdA R84M; assay: Activity and coupling assay of PbdA R84M variant with PbdB; assay type: biochemical, Rhodococcus jostii RHA1; details: air-saturated MOPS (I = 0.1 M), pH 7.2, 25 °C
Experimental: as §1
(§3) ^aExperiments were performed using air-saturated MOPS (I = 0.1 M), pH 7.2, at 25 °C. The rate of aromatic substrate turnover was based on the appearance of O-demethylated product. Standard deviation is shown in parentheses.

[10] = target: T3, PbdA S87A; assay: Activity and coupling assay of PbdA S87A variant with PbdB; assay type: biochemical, Rhodococcus jostii RHA1; details: for NADH depletion rate: air-saturated MOPS (I = 0.1 M), pH 7.2, 25 °C
Experimental: as §1, §3

[11] = target: T4, PbdA S237A; assay: Activity and coupling assay of PbdA S237A variant with PbdB; assay type: biochemical, Rhodococcus jostii RHA1; details: for NADH depletion rate: air-saturated MOPS (I = 0.1 M), pH 7.2, 25 °C
Experimental: as §1, §3

[12] = target: T5, PbdA S87A/S237A; assay: Activity and coupling assay of PbdA S87A/S237A variant with PbdB; assay type: biochemical, Rhodococcus jostii RHA1; details: for NADH depletion rate: air-saturated MOPS (I = 0.1 M), pH 7.2, 25 °C
Experimental: as §1, §3

[13] = test system: CYP199A4; set-up: method as in PMID 26969786; details: cited from earlier work
[14] = substrate: COc1ccc(C(=O)O)cc1O; assay: purified protein, by the assay type; details: other: WT PbdA with PbdB, air-saturated Mops (I = 0.1 M), pH 7.2, 25 °C, SD in parentheses
[15] = pH 7.2, 25 °C, SD in parentheses
[16] = WT PbdA, 20 mM Mops, I = 0.1 M, pH 7.2, 25 °C, SD in parentheses, read-out: Kd
[17] = appearance of O-demethylated product

T3 sequence (Q0SCI3 entry or part of it S85A): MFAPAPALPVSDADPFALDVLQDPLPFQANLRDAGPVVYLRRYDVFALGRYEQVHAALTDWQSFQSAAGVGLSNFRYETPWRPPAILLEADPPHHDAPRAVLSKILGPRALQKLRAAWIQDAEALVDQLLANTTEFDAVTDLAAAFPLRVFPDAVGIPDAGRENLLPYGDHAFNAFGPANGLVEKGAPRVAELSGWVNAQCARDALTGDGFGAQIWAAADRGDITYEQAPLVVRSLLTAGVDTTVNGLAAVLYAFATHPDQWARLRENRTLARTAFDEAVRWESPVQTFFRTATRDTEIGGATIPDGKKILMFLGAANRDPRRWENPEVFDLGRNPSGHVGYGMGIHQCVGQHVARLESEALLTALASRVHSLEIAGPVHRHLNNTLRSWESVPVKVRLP
T2 sequence (Q0SCI3 entry or part of it R82M): as the sequence (Q0SCI3 entry or part of it S85A) above, with R82M, A85S counted along it
T4 sequence (Q0SCI3 entry or part of it S235A): as the sequence (Q0SCI3 entry or part of it S85A) above, with A85S, S235A counted along it
T5 sequence (Q0SCI3 entry or part of it S85A/S235A): as the sequence (Q0SCI3 entry or part of it S85A) above, with S235A counted along it

| Molecule | NADH depletion rate [1, 15] | Rate of Aromatic turnover ([1]; SD in parentheses) | Coupling [1] | Kd [3, 16] | %High-spin (percent of heme iron in high-spin state) ([3]; WT PbdA) | Kd [3] | Kd [5] | Kd [6] | Kd [7] | Kd [8] | NADH depletion rate [9] | NADH depletion rate [10] | NADH depletion rate [11] | NADH depletion rate [12] | O-demethylation rate relative to that of p-MBA [13] | also measured |
| --- | --- | --- | --- | --- | --- | --- | --- | --- | --- | --- | --- | --- | --- | --- | --- | --- |
| CCc1ccc(C(=O)O)cc1 [p-EB, p-ethylbenzoate] | 830 (80) U mg P450^-1 | 900 (100) U mg P450^-1 | 110 (7) % | 6 µM | 72% | – | – | – | – | – | – | – | – | – | – | kcat (apparent) ([1]; WT PbdA with PbdB, air-saturated Mops (I = 0.1 M), pH 7.2, 25 °C, SD in parentheses): 0.14 (0.01) s^−1; Km ([1]; read-out: KM (apparent), WT PbdA with PbdB, air-saturated Mops (I = 0.1 M), pH 7.2, 25 °C, SD in parentheses): 12 µM; Growth of RHA1 on the compound as substrate [2]: did not grow |
| COc1ccc(C(=O)O)cc1OC [Veratrate, veratrate] | 2830 (50) U mg P450^-1 | 2030 (60) U mg P450^-1 | 72 (3) % | – | 84% | 18 µM | – | – | – | – | – | – | – | – | – | Coupling ([1]; listed as veratrate): approximately 75%; Turnover of substrate [4]: did not detectibly turn over |
| COc1ccc(C(=O)O)cc1O [Isovanillate, isovanillate] | 2200 (200) U mg P450^-1 | 1600 (100) U mg P450^-1 | 75.3 (0.1) % | 90 µM | 94% | – | – | – | – | – | – | – | – | – | – | Coupling ([1]; listed as isovanillate): approximately 75% |
| COc1ccc(C(C)=O)cc1 [p-MAP, p-methoxyacetophenone] | 117 (6) U mg P450^-1 | did not detectably O-demethylate | – | 37 µM | 2.8% | – | 8 µM | 14 µM | 12 µM | 8 µM | 170 (30) U mg P450^-1 | 265 (7) U mg P450^-1 | 220 (6) U mg P450^-1 | 160 (30) U mg P450^-1 | 0.25% | – |
| COc1ccc(C=O)cc1 [p-MBAL, p-methoxybenzaldehyde] | 140 (30) U mg P450^-1 | did not detectably O-demethylate | – | – | 7.9% | 11 µM | 7 µM | 16 µM | 12 µM | 8 µM | 170 (10) U mg P450^-1 | 290 (20) U mg P450^-1 | 300 (50) U mg P450^-1 | 200 (4) U mg P450^-1 | 0.1% | Coupling [10]: 27 (7) %; Specific activity ([10]; O-demethylation): 80 (30) U μg P450^-1; Rate of Aromatic turnover [10, 17]: 80 (30) U mg P450^-1; Coupling [11]: 9 (3) %; Specific activity ([11]; O-demethylation): 27 (2) U μg P450^-1; Rate of Aromatic turnover [11, 17]: 30 (3) U mg P450^-1; Coupling [12]: 90 (20) %; Specific activity ([12]; O-demethylation): 180 (20) U μg P450^-1; Rate of Aromatic turnover [12, 17]: 180 (40) U mg P450^-1 |
| B1 | – | – | – | – | – | – | – | – | – | – | – | – | – | – | – | Km [14]: 30 (10) μM; kcat [14]: 0.15 s⁻¹; kcat/Km [14]: 5000 M⁻¹ s⁻¹ |
